IC50 data for 12 compounds are collected here from patent US12084458B2, “Substituted pyridines, pyridazines, and pyrimidines as TYK2 inhibitors” (Sudo Biosciences Limited, priority 2021, dated 2024).

Broadly, the IC50 is the concentration that gives 50% inhibition.

The subject of assay [1] is HEK-Blue IL-23 cells (IL-23-stimulated STAT3 SEAP reporter; TYK2 JH2). The assay can be described thus: HEK-Blue IL-23 SEAP reporter assay for profiling TYK2 pseudokinase (JH2) inhibition. In kind it is cell-based. Conditions: 10 ng/mL human recombinant IL-23, SEAP reporter, read-out: IL23 (TYK2 inhibitory activity, IC50). The method in brief: (§1)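 STAT-inducible SEAP read-out: IFNα/β cells got 1 ng/mL IFNα for 16-18 h and IL-23 cells got 10 ng/mL IL-23 for 22-24 hours. In both cases the cytokine followed a 60 min preincubation with titrated test compound.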
For orientation: A reporter such as luciferase makes a cellular process visible.

Assay [2] has as its system HEK-Blue IFNα/β cells (IFNα-stimulated STAT1 SEAP reporter; TYK2 JH2). The assay can be described thus: HEK-Blue IFNα/β SEAP reporter assay for profiling TYK2 pseudokinase (JH2) inhibition. In kind it is cell-based. The following applies: Homo sapiens, HEK-Blue, 1 ng/mL human recombinant IFNα, read-out: IFNα (TYK2 inhibitory activity, IC50). Put shortly:
as §1

The target in the next assay is T1, TYK2 kinase domain (JH1) (Homo sapiens, UniProt P29597).
T1 construct: recombinant purified His or GST-tagged catalytic domain for each enzyme; made in house
T1 sequence (P29597 897-1176 limits assumed): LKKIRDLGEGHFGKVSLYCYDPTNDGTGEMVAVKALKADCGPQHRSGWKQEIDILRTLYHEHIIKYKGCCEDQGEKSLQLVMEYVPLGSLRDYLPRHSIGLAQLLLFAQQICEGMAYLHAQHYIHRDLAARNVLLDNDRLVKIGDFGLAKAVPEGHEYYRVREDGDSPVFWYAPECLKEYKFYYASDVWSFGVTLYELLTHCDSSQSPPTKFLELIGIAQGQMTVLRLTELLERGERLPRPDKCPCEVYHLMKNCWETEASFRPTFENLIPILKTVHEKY
The assay is described as follows: HTRF-based selectivity assay, TYK2 catalytic domain. The following applies: recombinant catalytic domain, ATP 20 μM. The assay is classed as biochemical. Here is the method: (§2) Example B-2: HTRF-Based Selectivity Assay
(§3) The ability of compounds to inhibit the activity of JAK1, JAK2, JAK3 and TYK2 is measured using a recombinant purified His or GST-tagged catalytic domain for each enzyme (JAK1, JAK2 and TYK2 are generated in-house; JAK3 was purchased from Carna biosciences, Cat #08-046) in an HTRF format biochemical assay. The reactions employs a commercial peptide substrate from Cisbio (Cat #62TK0PEC). The basic assay protocol is as follows: first, 2.5 μL of diluted compounds (4×) in DMSO are dispensed into a 384-well Optiplate. Next, 2.5 μL of enzyme (final concentrations for enzymes are: TYK2—700 ng/mL, JAK1—80.6 ng/mL, JAK2—2.1 ng/mL and JAK3—171.8 ng/mL) is added and incubated at RT for 5-20 min. Finally, 5 μl of mixture of 2× ATP [Final concentration 20 μM for TYK2, 21.43 μM for JAK1, 14.7 μM for JAK2 and 2.12 μM for JAK3]+2× Substrate [Final concentration 217 nM for TYK2, 454.7 nM for JAK1, 200 nM for JAK2 and 257.4 nM for JAK3] is added to 384 well Optiplate. Composition of Kinase assay buffer used in the assay is as follows: HEPES 50 mM, EGTA 1 mM, MgCl2 10 mM, DTT 2 mM, Tween-20 0.01% and water. Then the plates are shaken and then incubated at 26.5° C. for 60 min.
Background: Time-resolved FRET reads energy transfer from a long-lived donor to a nearby acceptor.

Another assay deals with T2, JAK1 kinase domain (JH1) (Homo sapiens, UniProt P23458).
T2 construct: recombinant purified His or GST-tagged catalytic domain for each enzyme; made in house
T2 sequence (P23458 875-1153 limits assumed): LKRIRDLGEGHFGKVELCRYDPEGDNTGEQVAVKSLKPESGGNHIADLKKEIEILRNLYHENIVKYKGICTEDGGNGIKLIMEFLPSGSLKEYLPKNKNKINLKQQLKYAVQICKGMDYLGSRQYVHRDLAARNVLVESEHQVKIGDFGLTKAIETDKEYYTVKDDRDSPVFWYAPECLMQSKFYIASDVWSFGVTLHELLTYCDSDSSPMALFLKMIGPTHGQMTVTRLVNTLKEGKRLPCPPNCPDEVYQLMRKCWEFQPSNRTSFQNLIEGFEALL
The assay can be described thus: HTRF-based selectivity assay, JAK1 catalytic domain. The assay is classed as biochemical. Conditions: recombinant catalytic domain, ATP 21.43 μM. Here is the method: as §2, §3

A further assay deals with T3, JAK2 kinase domain (JH1) (Homo sapiens, UniProt O60674).
T3 construct: recombinant purified His or GST-tagged catalytic domain for each enzyme; made in house
T3 sequence (O60674 849-1124 limits assumed): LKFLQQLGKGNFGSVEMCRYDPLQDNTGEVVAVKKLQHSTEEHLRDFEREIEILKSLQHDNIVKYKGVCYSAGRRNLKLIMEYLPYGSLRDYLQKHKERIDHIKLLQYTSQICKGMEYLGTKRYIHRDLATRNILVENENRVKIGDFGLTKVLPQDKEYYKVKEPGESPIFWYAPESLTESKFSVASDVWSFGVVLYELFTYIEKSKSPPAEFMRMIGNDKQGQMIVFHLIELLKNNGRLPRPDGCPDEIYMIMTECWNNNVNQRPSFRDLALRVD
The assay can be described thus: HTRF-based selectivity assay, JAK2 catalytic domain. The assay is classed as biochemical. The following applies: recombinant catalytic domain, ATP 14.7 μM. The method, then: as §2, §3

The target in the next assay is T4, JAK3 kinase domain (JH1) (Homo sapiens, UniProt P52333).
T4 construct: recombinant purified His or GST-tagged catalytic domain for each enzyme; purchased Carna biosciences 08-046
T4 sequence (P52333 822-1111 limits assumed): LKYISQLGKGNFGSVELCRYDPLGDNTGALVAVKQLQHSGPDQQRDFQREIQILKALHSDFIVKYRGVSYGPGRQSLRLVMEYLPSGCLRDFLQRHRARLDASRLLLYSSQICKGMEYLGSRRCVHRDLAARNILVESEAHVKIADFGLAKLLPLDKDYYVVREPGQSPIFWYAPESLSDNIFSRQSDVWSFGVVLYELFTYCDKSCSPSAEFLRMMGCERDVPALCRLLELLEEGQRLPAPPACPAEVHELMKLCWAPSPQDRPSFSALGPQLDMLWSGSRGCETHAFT
The assay is described as follows: HTRF-based selectivity assay, JAK3 catalytic domain. The assay is classed as biochemical. The following applies: recombinant catalytic domain, ATP 2.12 μM. The method, then:
as §2, §3

The test system of assay [3] is HEK-Blue IL-2 reporter cells (IL-2-stimulated STAT5 SEAP reporter). The assay can be described thus: HEK-Blue IL-2 SEAP reporter assay for determining selectivity. In kind it is cell-based. The following applies: 4 ng/mL human recombinant IL-2. The method in brief:
(§4)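 Cells were plated for 20-22 h, then pretreated with serially diluted compound for 60 min. They were stimulated for 24 h with 4 ng/mL human recombinant IL-2 or 50 ng/mL human recombinant IFNγ, and SEAP induction was read with QUANTI-Blue.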

Assay [4] relates to HEK-Blue IFNγ reporter cells (IFNγ-stimulated STAT1 SEAP reporter). The assay can be described thus: HEK-Blue IFNγ SEAP reporter assay for determining selectivity. The assay is classed as cell-based. The following applies: Homo sapiens, HEK-Blue, 50 ng/mL human recombinant IFNγ, read-out: IFN-γ (SEAP selectivity, IC50). Put shortly:
as §4

In the case of `[2H]C([2H])([2H])NC(=O)c1nnc(Nc2ccc(F)cn2)cc1Nc1cccc2c1N(C)Cc1nc(C)nn1-2` [Compound 12, 4-((2,5-dimethyl-4,5-dihydro-[1,2,4]triazolo[1,5-a]quinoxalin-6-yl)amino)-6-((5-fluoropyridin-2-yl)amino)-N-(methyl-d3)pyridazine-3-carboxamide], the IC50 in assay [1] was under 0.03 µM; in assay [2] it was under 0.03 µM; on TYK2 kinase domain (JH1) it was over 1 µM; on JAK1 kinase domain (JH1), over 1 µM; on JAK2 kinase domain (JH1), over 1 µM; at JAK3 kinase domain (JH1), over 1 µM. For the same compound, in assay [3], the IC50 fell in the range of 0.03 to 0.3 µM.
On to `[2H]C([2H])([2H])NC(=O)c1nnc(Nc2ccc(C(F)(F)F)cn2)cc1Nc1cccc2c1N(C)Cc1nc(C)nn1-2` [Compound 10, 4-((2,5-dimethyl-4,5-dihydro-[1,2,4]triazolo[1,5-a]quinoxalin-6-yl)amino)-N-(methyl-d3)-6-((5-(trifluoromethyl)pyridin-2-yl)amino)pyridazine-3-carboxamide], for which the IC50 in assay [1] was under 0.03 µM; in assay [2], 0.03 to 0.3 µM; on TYK2 kinase domain (JH1) it was over 1 µM; at JAK1 kinase domain (JH1) it was over 1 µM; on JAK2 kinase domain (JH1) it was over 1 µM; at JAK3 kinase domain (JH1) it was over 1 µM. Moreover, in assay [3], the IC50 was over 1 µM.
Consider `[2H]C([2H])([2H])NC(=O)c1cnc(NC(=O)C2CC2)cc1Nc1cccc2c1N(C)CCn1cnnc1-2` [Compound 78, 6-(cyclopropanecarboxamido)-N-(methyl-d3)-4-((7-methyl-6,7-dihydro-5H-benzo[f][1,2,4]triazolo[4,3-d][1,4]diazepin-8-yl)amino)nicotinamide], for which the IC50 is 0.03 to 0.3 µM in assay [1]; over 1 µM in assay [2]; over 1 µM on TYK2 kinase domain (JH1); over 1 µM on JAK1 kinase domain (JH1); over 1 µM at JAK2 kinase domain (JH1); over 1 µM on JAK3 kinase domain (JH1).
On to `[2H]C([2H])([2H])NC(=O)c1nnc(NC(=O)C2CC2)cc1Nc1nccc2c1N(C)Cc1nn(C)nc1-2` [Compound 88, 6-(cyclopropanecarboxamido)-4-((2,5-dimethyl-4,5-dihydro-2H-[1,2,3]triazolo[4,5-c][1,7]naphthyridin-6-yl)amino)-N-(methyl-d3)pyridazine-3-carboxamide], for which the IC50 in assay [1] was under 0.03 µM; in assay [2] it was under 0.03 µM; at TYK2 kinase domain (JH1) it was over 1 µM; on JAK1 kinase domain (JH1), over 1 µM; on JAK2 kinase domain (JH1), over 1 µM; in assay [3], 0.3 to 1 µM. Further, in assay [4], the IC50 fell in the range of 0.03 to 0.3 µM.
On to `[2H]C([2H])([2H])NC(=O)c1cnc(NC(=O)C2CC2)cc1Nc1cccc2c1N(C)C([2H])([2H])c1nn(C)nc1-2` [Compound 52, 6-(cyclopropanecarboxamido)-4-((2,5-dimethyl-4,5-dihydro-2H-[1,2,3]triazolo[4,5-c]quinolin-6-yl-4,4-d2)amino)-N-(methyl-d3)nicotinamide], for which the IC50 in assay [1] is under 0.03 µM; in assay [2] it was under 0.03 µM; at TYK2 kinase domain (JH1), over 1 µM; on JAK1 kinase domain (JH1), over 1 µM; at JAK2 kinase domain (JH1), over 1 µM; on JAK3 kinase domain (JH1), over 1 µM. Moreover, in assay [3], the IC50 is over 1 µM.
In the case of `[2H]C([2H])([2H])NC(=O)c1nnc(NC(=O)C2CC2)cc1Nc1cccc2c1N(C)Cc1nn(C)nc1-2` [Compound 46, 6-(cyclopropanecarboxamido)-4-((2,5-dimethyl-4,5-dihydro-2H-[1,2,3]triazolo[4,5-c]quinolin-6-yl)amino)-N-(methyl-d3)pyridazine-3-carboxamide], the IC50 in assay [1] is under 0.03 µM; in assay [2] it was under 0.03 µM; at JAK1 kinase domain (JH1), over 1 µM; at JAK2 kinase domain (JH1), over 1 µM; at JAK3 kinase domain (JH1) it was over 1 µM; in assay [3], over 1 µM. The IC50 in assay [4] lay in the range of 0.03 to 0.3 µM.
For the compound `[2H]C([2H])([2H])NC(=O)c1cnc(NC(=O)C2CC2)cc1Nc1cccc2c1N(C)Cc1nc(C)nn1-2` [Compound 4, 6-(cyclopropanecarboxamido)-4-((2,5-dimethyl-4,5-dihydro-[1,2,4]triazolo[1,5-a]quinoxalin-6-yl)amino)-N-(methyl-d3)nicotinamide], the IC50 in assay [1] was under 0.03 µM; in assay [2], under 0.03 µM; at TYK2 kinase domain (JH1) it was over 1 µM; on JAK1 kinase domain (JH1), over 1 µM; on JAK3 kinase domain (JH1), over 1 µM; in assay [3] it was over 1 µM. Further, the IC50 in assay [4] fell in the range of 0.3 to 1 µM.
With `[2H]C([2H])([2H])NC(=O)c1nnc(Nc2ccc(C)cn2)cc1Nc1cccc2c1N(C)Cc1nc(C)nn1-2` [Compound 11, 4-((2,5-dimethyl-4,5-dihydro-[1,2,4]triazolo[1,5-a]quinoxalin-6-yl)amino)-N-(methyl-d3)-6-((5-methylpyridin-2-yl)amino)pyridazine-3-carboxamide], the IC50 was under 0.03 µM in assay [1]; under 0.03 µM in assay [2]; over 1 µM at TYK2 kinase domain (JH1); over 1 µM at JAK1 kinase domain (JH1); over 1 µM on JAK2 kinase domain (JH1); over 1 µM at JAK3 kinase domain (JH1).
With `[2H]C([2H])([2H])NC(=O)c1cnc(NC(=O)C2CC2)cc1Nc1cccc2c1N(C([2H])([2H])[2H])Cc1nn(C)nc1-2` [Compound 47, 6-(cyclopropanecarboxamido)-N-(methyl-d3)-4-((2-methyl-5-(methyl-d3)-4,5-dihydro-2H-[1,2,3]triazolo[4,5-c]quinolin-6-yl)amino)nicotinamide], the IC50 is under 0.03 µM in assay [1]; under 0.03 µM in assay [2]; over 1 µM at TYK2 kinase domain (JH1); over 1 µM at JAK1 kinase domain (JH1); over 1 µM at JAK3 kinase domain (JH1); over 1 µM in assay [3]. Besides, the IC50 in assay [4] was 0.03 to 0.3 µM.
For the compound `[2H]C([2H])([2H])NC(=O)c1cnc(NC(=O)C2CC2)cc1Nc1cccc2c1N(C)Cc1nn(C)nc1-2` [Compound 45, 6-(cyclopropanecarboxamido)-4-((2,5-dimethyl-4,5-dihydro-2H-[1,2,3]triazolo[4,5-c]quinolin-6-yl)amino)-N-(methyl-d3)nicotinamide], the IC50 is under 0.03 µM in assay [1]; under 0.03 µM in assay [2]; over 1 µM on JAK1 kinase domain (JH1); over 1 µM on JAK2 kinase domain (JH1); over 1 µM at JAK3 kinase domain (JH1); over 1 µM in assay [3]. Besides, the IC50 in assay [4] was 0.03 to 0.3 µM.
Regarding `[2H]C([2H])([2H])NC(=O)c1cnc(NC(=O)C2CC2)cc1Nc1nccc2c1N(C)C([2H])([2H])c1nn(C)nc1-2` [Compound 97, 6-(cyclopropanecarboxamido)-4-((2,5-dimethyl-4,5-dihydro-2H-[1,2,3]triazolo[4,5-c][1,7]naphthyridin-6-yl-4,4-d2)amino)-N-(methyl-d3)nicotinamide], the IC50 in assay [1] was under 0.03 µM; in assay [2], under 0.03 µM; in assay [3], over 1 µM; in assay [4], 0.3 to 1 µM.
Consider `[2H]C([2H])([2H])NC(=O)c1nnc(NC(=O)NC)cc1Nc1nccc2c1N(C)[C@@H](C)c1nn(C)nc1-2` (single isomer, unassigned) [Compound 100], for which the IC50 in assay [1] was under 0.03 µM; in assay [2], under 0.03 µM; in assay [3], over 1 µM; in assay [4] it was over 1 µM.
